Measurements reported in patent US20260083742A1, “HOMOLOGOUS RECOMBINATION REPAIR DEFICIENCY (HRD) AS A PREDICTIVE BIOMARKER FOR TREATING CANCER WITH WEE1 INHIBITORS” (Zeno Management, Inc., priority 2023, published 2026).
Like-named read-outs stand apart in the source and are kept apart here.

Tests used:
[1] = system: parental MDA-MB-436 TNBC cell line; experiment: In vitro activity (IC50) in parental MDA-MB-436; type: cell-based
Description: (§1) Cells with BRCA reversion mutations may be considered HRD+due to genome instability (such as TAI, LST, LOH). BRCA reversion mutation is an established mechanism of resistance to both platinum-based chemotherapeutic drugs and PARP inhibitors. In vivo exploration of WEE1 inhibitors (azenosertib, adavosertib) and PARP inhibitors (niraparib, olaparib) was evaluated.
(§2) MDA-MB-436 PARP inhibitor-resistant lines were generated by long-term in vitro treatment with a PARP inhibitor that is olaparib (Ola^R) or niraparib (Nir^R).

[2] = system: MDA-MB-436 Nir^R (BRCA reversion) TNBC cell line; experiment: In vitro activity (IC50) in niraparib-resistant MDA-MB-436; type: cell-based
Description: as §1, §2

[3] = system: MDA-MB-436 Ola^R (BRCA reversion) TNBC cell line; experiment: In vitro activity (IC50) in olaparib-resistant MDA-MB-436; type: cell-based
Description: as §1, §2

[4] = system: SUM149PT TNBC xenograft (BRCA1 splice isoform Δ11q); experiment: SUM149PT TNBC xenograft tumor growth inhibition; type: in vivo, mice
Description: SUM149PT is a TNBC xenograft model harboring a BRCA1 splice isoform (Δ11q) that produces a truncated, partially functional protein which thereby promotes PARP inhibitor resistance. Azenosertib monotherapy and its combination with olaparib or AZD5305 was evaluated in the SUM149PT model in vivo in mice (FIGS. 10A-10B), and Table 12 summarizes the groups and treatments. Single agent treatment with olaparib at 100 mg/kg QD (FIG. 10A) or with the PARP1 selective inhibitor, AZD5305, at 0.1 or 1 mg/kg QD (FIG. 10B) confirmed SUM149PT resistance to PARP inhibitors.

[5] = Body weight loss and clinical observations in ovarian PDX study; type: in vivo
Description: Relative Body Weight (RBW), individual body weight and mean body weight loss percent were calculated for each measurement by dividing the body weight by the body weight at the start of treatment as described in Example 3.

[6] = system: 22RV1 (prostate cancer cell line) subcutaneous xenografts; experiment: 22RV1 subcutaneous xenograft tumor growth inhibition; type: in vivo, CB17 SCID mice
Description: The prostate cancer cell line 22RV1 harbors a BRCA2 pathogenic mutation (HRD+). Briefly, 72 tumor-bearing mice were randomized and assigned into nine groups using a randomized block design based on their tumor volumes with eight mice per group. Each mouse was inoculated subcutaneously at the right flank with 22RV1 tumor cells in 0.2 mL mixture of Matrigel (5×10^6 cells/mouse). Treatments were started when the tumor size reached 199.94 mm^3 for tumor efficacy studies (Day 14 post inoculation). [table] Tumor size was measured twice weekly in two dimensions using caliper and expressed in mm3 using the formula: where a and b were long and short diameters of the tumor. The tumor size was used for calculations of T/C %. The T/C(%) was calculated according to the following formula: Two-way ANOVA followed by Bonferroni post-test was performed to compare tumor volumes among vehicle and other groups.

[7] = Body weight loss and clinical observations in TNBC PDX study; conditions: azenosertib 60 mg/kg and/or niraparib 35 mg/kg p.o., (5 days on, 2 days off) × 4
Description: Animals were treated with 60 mg/kg azenosertib or 35 mg/kg niraparib alone or in combination on an intermittent dosing regimen of once a day for 5 days followed by 2 days off (qd x5, 2 days off) for 4 cycles (28 days).
Relative body weight (RBW) is calculated for each measurement by dividing the body weight by the body weight at the start of treatment. Individual body weight loss percent is given by the formula: […]
where BWx is the BW at any day during the treatment and BW0 is the BW on the day of inclusion.
Mean body weight loss percent is given by the formula: […]
where BWx is the mean BW at any day during the treatment and BW0 is the mean BW on the day of inclusion.
Mean relative body weight (RBW) curves were obtained by plotting the mean RBW against time for each experimental group. Delta relative body weights (relative body weights of treated group compared to relative body weights of control group) were used for statistical analysis.

[8] = system: HCC1937 PARP inhibitor-resistant TNBC xenograft; experiment: HCC1937 TNBC xenograft tumor growth inhibition; type: in vivo, mice; conditions: olaparib 100 mg/kg QD
Description: Anti-tumor activity of azenosertib monotherapy or in combination with olaparib was evaluated in the HCC1937 model in vivo in mice (FIG. 9), and Table 11 summarizes the groups and treatments. […] Treatment with monotherapy olaparib at 100 mg/kg QD confirmed HCC1937 resistance to the PARP inhibitor.

[9] = parental MDA-MB-436, read-out: In vitro activity (IC50) Wild Type
[10] = MDA-MB-436 Ola^R, read-out: In vitro activity (IC50) Olaparib^R (BRCA reversion)
[11] = Homo sapiens, parental MDA-MB-436, read-out: In vitro activity (IC50) Wild Type
[12] = azenosertib 60 mg/kg and/or niraparib 35 mg/kg p.o., (5 days on, 2 days off) × 4
[13] = Homo sapiens, MDA-MB-436 Ola^R, read-out: In vitro activity (IC50) Olaparib^R (BRCA reversion)
[14] = niraparib 30 mg/kg p.o. qd × 5 3 cycle
[15] = olaparib 50 mg/kg p.o. qd × 5 3 cycle

CN(C)CCCOc1ccc(-c2ccc3ncc4c(c3c2)n(C2CCOCC2)c(=O)n4C)cn1 [AZD0156] gave an IC50 [1, 9] of 4.98 µM, an IC50 [2] of 2.08 µM and an IC50 [3, 10] of 1.99 µM.

In the case of CCc1cc2ncc(CN3CCN(c4ccc(C(=O)NC)nc4)CC3)cc2[nH]c1=O [AZD5305, saruparib], the “anti-tumor activity of single agent” value ([4]; AZD5305 0.1 or 1 mg/kg QD) is reported as “resistance”.

With C[C@@H]1COCCN1c1cc(C2([S@](C)(=N)=O)CC2)nc(-c2cc[nH]c3nccc2-3)n1 [AZD6738] the IC50 [1, 9] was 3.67 µM, the IC50 [2] was 1.77 µM and the IC50 [3, 10] was 1.84 µM.

For Cc1cc2ncnn2cc1Nc1ncc2c(n1)n(C1CCOCC1)c(=O)n2C [AZD7648], the IC50 [1, 9] was over 10 µM, the IC50 [2] was over 10 µM and the IC50 [3, 10] was over 10 µM.

With Cn1cc(-c2cnn3c(N)c(Br)c([C@@H]4CCCNC4)nc23)cn1 [MK8776] the IC50 ([1]; Homo sapiens, MDA-MB-436, read-out: In vitro activity (IC50) Wild Type) was over 10 µM and the IC50 ([3]; Homo sapiens, MDA-MB-436, read-out: In vitro activity (IC50) Olaparib^R (BRCA reversion)) was 5.97 µM.

For NC(=O)c1cccc2cn(-c3ccc([C@@H]4CCCNC4)cc3)nc12 [Niraparib, niraparib], the IC50 [1, 11] was 0.103 µM, the “Max. individual BWL” value [5, 12] was 7.0% and the “Max. mean BWL” value [5, 12] was 1.5%. The “tolerability (body weight data and clinical observations)” value ([5]; azenosertib at 60 mg/kg, niraparib at 35 mg/kg, single agents or in combination) was “well tolerated”, the IC50 ([2]; Homo sapiens) was 8.65 µM and the IC50 [3, 13] was 7.73 µM. The “% TGI Day 5” value [6, 14] was 31.64%, the “% TGI Day 8” value [6, 14] was 18.17% and the “% TGI Day 12” value [6, 14] was 21.99%. For the same molecule, the “% TGI Day 15” value [6, 14] was 4.28%, the “% TGI Day 19” value [6, 14] was −1.28% and the “Max. individual BWL” value [7] was 6.2%. For the same molecule, the “Max. mean BWL” value [7] was 3.4%.

With O=C(c1cc(Cc2n[nH]c(=O)c3ccccc23)ccc1F)N1CCN(C(=O)C2CC2)CC1 [Olaparib, olaparib] the IC50 [1, 11] was 0.095 µM, the IC50 ([2]; Homo sapiens) was over 10 µM and the IC50 [3, 13] was over 10 µM. The “% TGI Day 5” value [6, 15] was 33.81%, the “% TGI Day 8” value [6, 15] was 26.80% and the “% TGI Day 12” value [6, 15] was 18.2%. For the same molecule, the “% TGI Day 15” value [6, 15] was 5.03%, the “% TGI Day 19” value [6, 15] was 14.79% and the “anti-tumor activity of monotherapy” value [8] was “resistance”. The “anti-tumor activity of single agent” value ([4]; olaparib 100 mg/kg QD) was “resistance”.
